From US11142515B2, “Pyrazolyl-ureas as kinase inhibitors” (RESPIVERT LIMITED, priority 2014, dated 2021)

Experiments:
[1] = biological target: T1, p38 MAPKα isoform (MAPK14) (Homo sapiens, UniProt Q16539); test: p38 MAPKα enzyme inhibition (Z-LYTE FRET); assay type: biochemical; conditions: Table 2B, unit inferred; read-out: p38 MAPKα (Enzyme Profile)
T1 construct: purchased Life Technologies
Method in brief: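 Activity was measured indirectly as phosphorylation of a MAPKAP-K2-derived FRET peptide. Enzyme (added at 40 ng/mL) was preincubated 2 h at RT with compound (added solutions 40–0.0012 μg/mL).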

p38MAPKγ (MAPK12) = biological target: T2, p38MAPKγ (MAPK12) (Homo sapiens, UniProt P53778); test: p38 MAPKγ enzyme inhibition (Z-LYTE FRET); assay type: biochemical; conditions: Table 2B, unit inferred; read-out: p38 MAPKγ (Enzyme Profile)
T2 construct: purchased Life Technologies
T2 sequence (P53778 1-367): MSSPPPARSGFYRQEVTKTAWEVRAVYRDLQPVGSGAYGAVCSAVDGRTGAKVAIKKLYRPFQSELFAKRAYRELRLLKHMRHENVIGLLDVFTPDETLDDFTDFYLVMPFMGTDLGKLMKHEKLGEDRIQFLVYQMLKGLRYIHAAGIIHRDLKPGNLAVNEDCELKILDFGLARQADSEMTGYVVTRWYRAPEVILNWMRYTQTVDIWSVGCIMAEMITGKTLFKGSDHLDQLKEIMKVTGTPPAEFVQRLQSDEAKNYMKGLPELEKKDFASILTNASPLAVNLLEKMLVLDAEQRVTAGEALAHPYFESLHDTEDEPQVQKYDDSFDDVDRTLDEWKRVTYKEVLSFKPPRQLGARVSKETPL
Method in brief: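 Enzyme (added at 800 ng/mL) was preincubated 2 h at RT with compound (solutions of 40 to 0.0012 μg/mL), then FRET peptide (8 μM) and ATP (400 μM), both as added, were reacted 1 h at RT. Protease development followed for 1 h; phosphorylation was read as the coumarin/fluorescein emission ratio.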

T1 sequence (Q16539 whole entry, canonical isoform): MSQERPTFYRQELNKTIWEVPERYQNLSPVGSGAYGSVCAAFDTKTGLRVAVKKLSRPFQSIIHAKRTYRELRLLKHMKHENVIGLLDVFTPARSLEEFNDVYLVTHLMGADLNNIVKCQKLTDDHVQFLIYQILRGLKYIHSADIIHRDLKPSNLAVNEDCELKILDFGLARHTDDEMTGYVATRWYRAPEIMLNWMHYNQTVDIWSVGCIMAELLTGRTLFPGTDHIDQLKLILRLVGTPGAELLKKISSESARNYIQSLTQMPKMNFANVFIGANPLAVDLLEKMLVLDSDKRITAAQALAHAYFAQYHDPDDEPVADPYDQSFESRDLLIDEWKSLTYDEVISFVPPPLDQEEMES

Structure (SMILES)	IC50 [1]	IC50 (p38MAPKγ (MAPK12))
CCc1cncc(Nc2cc(COc3ccc(NC(=O)Nc4cc(C(C)(C)C)nn4-c4ccc(OC)c(C)c4)c4ccccc34)ccn2)n1 [Example 140, 1-(3-(tert-butyl)-1-(4-methoxy-3-methylphenyl)-1H-pyrazol-5-yl)-3-(4-((2-((6-ethylpyrazin-2-yl)amino)pyridin-4-yl)methoxy)naphthalen-1-yl)urea]	29 nM	> 15200 nM
CCc1cncc(Nc2cc(COc3ccc(NC(=O)Nc4cc(C(C)(C)C)nn4-c4cccc(C)c4)c4ccccc34)ccn2)n1 [Example 141, 1-(3-(tert-butyl)-1-(m-tolyl)-1H-pyrazol-5-yl)-3-(4-((2-((6-ethylpyrazin-2-yl)amino)pyridin-4-yl)methoxy)naphthalen-1-yl)urea]	18 nM	438 nM
COc1cccc(-n2nc(C(C)(C)C)cc2NC(=O)Nc2ccc(OCc3ccnc(Nc4cnccn4)c3)c3ccccc23)c1 [Example 142, 1-(3-(tert-butyl)-1-(3-methoxyphenyl)-1H-pyrazol-5-yl)-3-(4-((2-(pyrazin-2-ylamino)pyridin-4-yl)methoxy)naphthalen-1-yl) urea]	5.7 nM	78 nM
CCc1cncc(Nc2cc(COc3ccc(NC(=O)Nc4cc(C(C)(C)C)nn4-c4ccc(C)c(C)c4)c4ccccc34)ccn2)n1 [Example 144, 1-(3-(tert-butyl)-1-(3,4-dimethylphenyl)-1H-pyrazol-5-yl)-3-(4-((2-((6-ethylpyrazin-2-yl)amino)pyridin-4-yl)methoxy)naphthalen-1-yl)urea]	63 nM	518 nM
Cc1ccc(-n2nc(C(C)(C)C)cc2NC(=O)Nc2ccc(OCc3ccnc(Nc4cncc(C5CC5)n4)c3)c3ccccc23)cc1C [Example 145, 1-(3-(tert-butyl)-1-(3,4-dimethylphenyl)-1H-pyrazol-5-yl)-3-(4-((2-((6-cyclopropylpyrazin-2-yl)amino)pyridin-4-yl)methoxy)naphthalen-1-yl)urea]	43 nM	260 nM
Cc1ccc(-n2nc(C(C)(C)C)cc2NC(=O)Nc2ccc(OCc3ccnc(Nc4cnc(C)c(C)n4)c3)c3ccccc23)cc1C [Example 146, 1-(3-(tert-butyl)-1-(3,4-dimethylphenyl)-1H-pyrazol-5-yl)-3-(4-((2-((5,6-dimethylpyrazin-2-yl)amino)pyridin-4-yl)methoxy)naphthalen-1-yl)urea]	69 nM	1550 nM
Cc1ccc(-n2nc(C(C)(C)C)cc2NC(=O)Nc2ccc(OCc3ccnc(Nc4cnc(CO)cn4)c3)c3ccccc23)cc1C [Example 147, 1-(3-(tert-butyl)-1-(3,4-dimethylphenyl)-1H-pyrazol-5-yl)-3-(4-((2-((5-(hydroxymethyl)pyrazin-2-yl)amino)pyridin-4-yl)methoxy)naphthalen-1-yl) urea]	4.1 nM	119 nM
COc1ccc(-n2nc(C(C)(C)C)cc2NC(=O)Nc2ccc(OCc3ccnc(Nc4cnccn4)c3)c3ccccc23)cc1F [Example 148, 1-(3-(tert-butyl)-1-(3-fluoro-4-methoxyphenyl)-1H-pyrazol-5-yl)-3-(4-((2-(pyrazin-2-ylamino)pyridin-4-yl)methoxy)naphthalen-1-yl)urea]	13 nM	247 nM
CSc1ccc(-n2nc(C(C)(C)C)cc2NC(=O)Nc2ccc(OCc3ccnc(Nc4cnccn4)c3)c3ccccc23)cc1 [Example 149, 1-(3-(tert-butyl)-1-(4-(methylthio)phenyl)-1H-pyrazol-5-yl)-3-(4-((2-(pyrazin-2-ylamino)pyridin-4-yl)methoxy)naphthalen-1-yl)urea]	13 nM	> 15900 nM
CCc1cnc(Nc2cc(COc3ccc(NC(=O)Nc4cc(C(C)(C)C)nn4-c4ccc(C)c(C)c4)c4ccccc34)ccn2)cn1 [Example 151, 1-(3-(tert-butyl)-1-(3,4-dimethylphenyl)-1H-pyrazol-5-yl)-3-(4-((2-((5-ethylpyrazin-2-yl)amino)pyridin-4-yl)methoxy)naphthalen-1-yl)urea]	35 nM	439 nM
COCCNC(=O)c1cnc(Nc2cc(COc3ccc(NC(=O)Nc4cc(C(C)(C)C)nn4-c4cccc(C)c4)c4ccccc34)ccn2)cn1 [Example 152, 5-((4-(((4-(3-(3-(tert-butyl)-1-(m-tolyl)-1H-pyrazol-5-yl)ureido)naphthalen-1-yl)oxy)methyl)pyridin-2-yl)amino)-N-(2-methoxyethyl) pyrazine-2-carboxamide]	14 nM	240 nM
COCCCc1cncc(Nc2cc(COc3ccc(NC(=O)Nc4cc(C(C)(C)C)nn4-c4ccc(C)cc4)c4ccccc34)ccn2)n1 [Example 153, 1-(3-(tert-butyl)-1-(p-tolyl)-1H-pyrazol-5-yl)-3-(4-((2-((6-(3-methoxypropyl)pyrazin-2-yl)amino)pyridin-4-yl)methoxy)naphthalen-1-yl)urea]	20 nM	77 nM
COCCNC(=O)c1cnc(Nc2cc(COc3ccc(NC(=O)Nc4cc(C(C)(C)C)nn4-c4ccc(C)c(C)c4)c4ccccc34)ccn2)cn1 [Example 156]	21 nM	495 nM
COCCOc1ccc(-n2nc(C(C)(C)C)cc2NC(=O)Nc2ccc(OCc3ccnc(Nc4cnccn4)c3)c3ccccc23)cc1C [Example 157, 1-(3-(tert-butyl)-1-(4-(2-methoxyethoxy)-3-methyl-phenyl)-1H-pyrazol-5-yl)-3-(4-((2-(pyrazin-2-ylamino)pyridin-4-yl)methoxy)naphthalen-1-yl) urea]	23 nM	> 14900 nM
COCC#Cc1cncc(Nc2cc(COc3ccc(NC(=O)Nc4cc(C(C)(C)C)nn4-c4ccc(C)cc4)c4ccccc34)ccn2)n1 [Example 158, 1-(3-(tert-butyl)-1-(p-tolyl)-1H-pyrazol-5-yl)-3-(4-((2-((6-(3-methoxyprop-1-yn-1-yl)pyrazin-2-yl)amino)pyridin-4-yl)methoxy)naphthalen-1-yl)urea]	435 nM	> 15000 nM

Now from value to compound:

IC50 [1]	IC50 (p38MAPKγ (MAPK12))	Structure (SMILES)
< 0.41 nM	41 nM	Cc1ccc(-n2nc(C(C)(C)C)cc2NC(=O)Nc2ccc(OCc3ccnc(Nc4cnc(C(=O)N5CCN(C)CC5)cn4)c3)c3ccccc23)cc1 [Example 136, 1-(3-(tert-butyl)-1-(p-tolyl)-1H-pyrazol-5-yl)-3-(4-((2-((5-(4-methylpiperazine-1-carbonyl)pyrazin-2-yl)amino)pyridin-4-yl)methoxy)naphthalen-1-yl)urea]
6 nM	> 14100 nM	Cc1ccc(-n2nc(C(C)(C)C)cc2NC(=O)Nc2ccc(OCc3ccnc(Nc4cnc(C(=O)N5CCCCC5)cn4)c3)c3ccccc23)cc1 [Example 137, 1-(3-(tert-butyl)-1-(p-tolyl)-1H-pyrazol-5-yl)-3-(4-((2-((5-(piperidine-1-carbonyl)pyrazin-2-yl)amino)pyridin-4-yl)methoxy)naphthalen-1-yl)urea]
29 nM	> 15300 nM	Cc1ccc(-n2nc(C(C)(C)C)cc2NC(=O)Nc2ccc(OCc3ccnc(Nc4cnc5c(n4)CCCC5)c3)c3ccccc23)cc1 [Example 138, 1-(3-(tert-butyl)-1-(p-tolyl)-1H-pyrazol-5-yl)-3-(4-((2-((5,6,7,8-tetrahydro-quinoxalin-2-yl)amino)pyridin-4-yl)methoxy)naphthalen-1-yl)urea]
53 nM	1110 nM	CCc1ncc(Nc2cc(COc3ccc(NC(=O)Nc4cc(C(C)(C)C)nn4-c4ccc(C)cc4)c4ccccc34)ccn2)nc1CC [Example 139, 1-(3-(tert-butyl)-1-(p-tolyl)-1H-pyrazol-5-yl)-3-(4-((2-((5,6-diethylpyrazin-2-yl)amino)pyridin-4-yl)methoxy)naphthalen-1-yl) urea]
19 nM	211 nM	CCc1nc(Nc2cc(COc3ccc(NC(=O)Nc4cc(C(C)(C)C)nn4-c4ccc(C)cc4)c4ccccc34)ccn2)cnc1C [Example 143, 1-(3-(tert-butyl)-1-(p-tolyl)-1H-pyrazol-5-yl)-3-(4-((2-((6-ethyl-5-methylpyrazin-2-yl)amino)pyridin-4-yl)methoxy)naphthalen-1-yl) urea]
25 nM	229 nM	Cc1ccc(-n2nc(C(C)(C)C)cc2NC(=O)Nc2ccc(OCc3ccnc(Nc4cnc(C)c(C5CC5)n4)c3)c3ccccc23)cc1 [Example 150, 1-(3-(tert-butyl)-1-(p-tolyl)-1H-pyrazol-5-yl)-3-(4-((2-((6-cyclopropyl-5-methyl-pyrazin-2-yl)amino)pyridin-4-yl)methoxy)naphthalen-1-yl)urea]
10 nM	49 nM	COCCc1cncc(Nc2cc(COc3ccc(NC(=O)Nc4cc(C(C)(C)C)nn4-c4ccc(C)cc4)c4ccccc34)ccn2)n1 [Example 154, 1-(3-(tert-butyl)-1-(p-tolyl)-1H-pyrazol-5-yl)-3-(4-((2-((6-(2-methoxyethyl)pyrazin-2-yl)amino)pyridin-4-yl)methoxy)naphthalen-1-yl)urea]
8.9 nM	31 nM	Cc1ccc(-n2nc(C(C)(C)C)cc2NC(=O)Nc2ccc(OCc3ccnc(Nc4cncc(CCCO)n4)c3)c3ccccc23)cc1 [Example 155, 1-(3-(tert-butyl)-1-(p-tolyl)-1H-pyrazol-5-yl)-3-(4-((2-((6-(3-hydroxypropyl)pyrazin-2-yl)amino)pyridin-4-yl)methoxy)naphthalen-1-yl)urea]
